The source made the active and inactive calls. The rule behind the calls is not given here.
Experiments:
[1] = Cytotoxicity against human SAE cells at 1 to 10 ug/ml; type: cell-based
SAE [2] = assay: Inhibition of MMP1 mRNA expression in human SAE cells at 1 to 10 ug/ml after 24 hrs by quantitative RT-PCR analysis; type: functional, cell-based
SAE [3] = assay: Inhibition of CPE-induced MMP1 mRNA expression in human SAE cells after 24 hrs by quantitative RT-PCR analysis; type: functional, cell-based
[4] = Inhibition of CPE-induced MMP1 mRNA expression in human SAE cells after 24 hrs by quantitative RT-PCR analysis relative to control; type: functional

With `O=c1oc2c(O)c(O)cc3c(=O)oc4c(O)c(O)cc1c4c23` [ELLAGIC ACID] the Activity [1] was “Non-toxic”, the inhibition (SAE [2]) was “Active” and the inhibition (SAE [3]) was “Dose-dependent effect”. For the same molecule, the “fold change (FC)” value [4] was 6.

Source: ChEMBL document CHEMBL2046420, “Edible Myrciaria vexator fruits: bioactive phenolics for potential COPD therapy” (Bioorg Med Chem, 2012)
